In general, EC50 refers to the concentration giving half of the maximal effect. Lower therefore signals higher potency in that assay.

For the assay, the system named is hypoxia-induced VEGF production in HeLa cells. Kind of assay: cells. In kind it is cell-based, human. To be noted: Homo sapiens, HeLa.

`O=C(OC1CCCC1)N1CCc2c([nH]c3ccc(Cl)cc23)[C@@H]1c1ccc(OC[C@H](O)CO)cc1` [Compound 1322] had a half-maximal effective concentration (EC50) of under 8 nM.
To `O=C(OC1CCCC1)N1CCc2c([nH]c3ccc(Cl)cc23)[C@@H]1c1ccc(OC[C@@H](O)CO)cc1` [Compound 1323] belongs under 8 nM; to `CCOC(=O)N1CCc2c([nH]c3ccc(Cl)cc23)[C@@H]1c1ccc(OCC(CC)(CO)CO)cc1` [Compound 1324], under 8 nM; to `CCC(CO)(CO)COc1ccc([C@H]2c3[nH]c4ccc(Cl)cc4c3CCN2C(=O)OCC(C)C)cc1` [Compound 1326], under 8 nM.
Regarding `CCC(CO)(CO)COc1ccc([C@H]2c3[nH]c4ccc(Cl)cc4c3CCN2C(=O)OC2CCCC2)cc1` [Compound 1327], the EC50 is under 8 nM.
To `O=C(Oc1ccc(Cl)cc1)N1CCc2c([nH]c3ccc(Cl)cc23)[C@H]1c1ccc(O)cc1` [Compound 1332] belongs over 1000 nM; to `CCOC(=O)C(=O)N1CCc2c([nH]c3ccc(Cl)cc23)C1c1ccc(OC)cc1` (centres unmarked) [Compound 1334], 40 to 200 nM; to `COc1ccc(C2c3[nH]c4ccc(Cl)cc4c3CCN2C(=O)C(=O)OC(C)C)cc1` (centres unmarked) [Compound 1338], 8 to 40 nM.
The figure for `CCCOC(=O)C(=O)N1CCc2c([nH]c3ccc(Cl)cc23)C1c1ccc(OC)cc1` (centres unmarked) [Compound 1339] is 8 to 40 nM; for `CCOC(=O)N1CCc2c([nH]c3ccc(Br)cc23)C1c1ccc(OCC(O)CO)cc1` (centres unmarked) [Compound 1340] it is 8 to 40 nM; for `CC(C)OC(=O)N1CCc2c([nH]c3ccc(Br)cc23)C1c1ccc(OCC(O)CO)cc1` (centres unmarked) [Compound 1341] it is 8 to 40 nM.
The figure for `CC(C)COC(=O)N1CCc2c([nH]c3ccc(Br)cc23)C1c1ccc(OCC(O)CO)cc1` (centres unmarked) [Compound 1342] is under 8 nM.
`CCOC(=O)N1CCc2c([nH]c3ccc(Br)cc23)C1c1ccc(OCC[C@H](O)CO)cc1` (some centres unmarked) [Compound 1345] gave an EC50 of under 8 nM.
To `CC(C)OC(=O)N1CCc2c([nH]c3ccc(Br)cc23)C1c1ccc(OCC[C@H](O)CO)cc1` (some centres unmarked) [Compound 1346] belongs under 8 nM; to `CC(C)COC(=O)N1CCc2c([nH]c3ccc(Br)cc23)C1c1ccc(OCC[C@H](O)CO)cc1` (some centres unmarked) [Compound 1347], under 8 nM.
To `CC(C)OC(=O)N1CCc2c([nH]c3ccc(Br)cc23)C1c1ccc(OCC(C)(CO)CO)cc1` (centres unmarked) [Compound 1350] belongs under 8 nM; to `CC(C)COC(=O)N1CCc2c([nH]c3ccc(Br)cc23)C1c1ccc(OCC(C)(CO)CO)cc1` (centres unmarked) [Compound 1351], under 8 nM.
To `CCOC(=O)N1CCc2c([nH]c3ccc(Br)cc23)C1c1ccc(OCC(CC)(CO)CO)cc1` (centres unmarked) [Compound 1354] belongs under 8 nM; to `CCC(CO)(CO)COc1ccc(C2c3[nH]c4ccc(Br)cc4c3CCN2C(=O)OC(C)C)cc1` (centres unmarked) [Compound 1355], under 8 nM.
Molecule `CCC(CO)(CO)COc1ccc(C2c3[nH]c4ccc(Br)cc4c3CCN2C(=O)OCC(C)C)cc1` (centres unmarked) [Compound 1356] registered an EC50 of under 8 nM.
The molecule `CCOC(=O)N1CCc2c([nH]c3ccc(Cl)cc23)[C@@H]1c1ccc(OCC2(CO)COCOC2)cc1` [Compound 1359] had an EC50 of 8 to 40 nM.
The figure for `CC(C)OC(=O)N1CCc2c([nH]c3ccc(Cl)cc23)[C@@H]1c1ccc(OCC2(CO)COCOC2)cc1` [Compound 1360] is 8 to 40 nM.
The figure for `COC(=O)[C@H]1CCCN1CCCOc1ccc(C2c3[nH]c4ccc(Cl)cc4c3CCN2C(=O)Oc2ccc(Cl)cc2)cc1` (some centres unmarked) [Compound 1362] is under 8 nM.
`CCOC(=O)N1CCc2c([nH]c3ccc(Cl)cc23)C1c1cccc(OCCCN2CCN(C(C)=O)CC2)c1` (centres unmarked) [Compound 1363] registered an EC50 of 40 to 200 nM.
To `CC(=O)N1CCN(CCCOc2cccc(C3c4[nH]c5ccc(Cl)cc5c4CCN3C(=O)Oc3ccc(F)cc3)c2)CC1` (centres unmarked) [Compound 1364] belongs 40 to 200 nM; to `C=CCOc1ccc([C@H]2c3[nH]c4ccc(Cl)cc4c3CCN2C(=O)OCC2CC2)cc1` [Compound 1365], under 8 nM; to `C=CCOc1ccc([C@H]2c3[nH]c4ccc(Cl)cc4c3CCN2C(=O)OCC2CCC2)cc1` [Compound 1366], under 8 nM.
To `O=C(OCC1CCC1)N1CCc2c([nH]c3ccc(Cl)cc23)[C@@H]1c1ccc(OCCCO)cc1` [Compound 1368] belongs under 8 nM; to `O=C(OCC1CC1)N1CCc2c([nH]c3ccc(Cl)cc23)[C@@H]1c1ccc(O)cc1` [Compound 1369], 8 to 40 nM.
With `O=C(OCC1CCC1)N1CCc2c([nH]c3ccc(Cl)cc23)[C@@H]1c1ccc(O)cc1` [Compound 1370], the EC50 lay in the range of 8 to 40 nM.
The figure for `COc1ccc([C@H]2c3[nH]c4ccc(Cl)cc4c3CCN2C(=O)OCC2CC2)cc1` [Compound 1371] is 8 to 40 nM; for `COc1ccc([C@H]2c3[nH]c4ccc(Cl)cc4c3CCN2C(=O)OCC2CCC2)cc1` [Compound 1372] it is under 8 nM; for `O=C(OCC1CC1)N1CCc2c([nH]c3ccc(Cl)cc23)[C@@H]1c1ccc(OCC[C@H](O)CO)cc1` [Compound 1373] it is under 8 nM.
To `O=C(OCC1CCC1)N1CCc2c([nH]c3ccc(Cl)cc23)[C@@H]1c1ccc(OCC[C@H](O)CO)cc1` [Compound 1374] belongs under 8 nM; to `CC(CO)(CO)COc1ccc([C@H]2c3[nH]c4ccc(Cl)cc4c3CCN2C(=O)OCC2CC2)cc1` [Compound 1375], under 8 nM; to `CC(CO)(CO)COc1ccc([C@H]2c3[nH]c4ccc(Cl)cc4c3CCN2C(=O)OCC2CCC2)cc1` [Compound 1376], under 8 nM.
To `O=C(OCC1CC1)N1CCc2c([nH]c3ccc(Cl)cc23)[C@@H]1c1ccc(OC[C@H](O)CO)cc1` [Compound 1377] belongs under 8 nM; to `CC1(COC(=O)N2CCc3c([nH]c4ccc(Cl)cc34)[C@@H]2c2ccc(OC[C@H](O)CO)cc2)CC1` [Compound 1378], under 8 nM; to `O=C(OCC1CCC1)N1CCc2c([nH]c3ccc(Cl)cc23)[C@@H]1c1ccc(OC[C@H](O)CO)cc1` [Compound 1379], under 8 nM.
As to `O=C(OCC1CC1)N1CCc2c([nH]c3ccc(Cl)cc23)[C@@H]1c1ccc(OC[C@@H](O)CO)cc1` [Compound 1380], the EC50 was under 8 nM.
The molecule `CC1(COC(=O)N2CCc3c([nH]c4ccc(Cl)cc34)[C@@H]2c2ccc(OC[C@@H](O)CO)cc2)CC1` [Compound 1381] yielded an EC50 of under 8 nM.
For the molecule `O=C(OCC1CCC1)N1CCc2c([nH]c3ccc(Cl)cc23)[C@@H]1c1ccc(OC[C@@H](O)CO)cc1` [Compound 1382], the EC50 was under 8 nM.
Regarding `CCC(CO)(CO)COc1ccc([C@H]2c3[nH]c4ccc(Cl)cc4c3CCN2C(=O)OCC2CC2)cc1` [Compound 1383], the EC50 is under 8 nM.
`CCC(CO)(CO)COc1ccc([C@H]2c3[nH]c4ccc(Cl)cc4c3CCN2C(=O)OCC2(C)CC2)cc1` [Compound 1384]: the EC50 is under 8 nM.
The figure for `CCC(CO)(CO)COc1ccc([C@H]2c3[nH]c4ccc(Cl)cc4c3CCN2C(=O)OCC2CCC2)cc1` [Compound 1385] is under 8 nM.
Turning to `O=C(OCC1CCC1)N1CCc2c([nH]c3ccc(Cl)cc23)[C@@H]1c1ccc(OCC2(CO)COCOC2)cc1` [Compound 1386], the 50% effective concentration (EC50) was 8 to 40 nM.
Molecule `CCOC(=O)CNC(=O)c1cccc(C2c3[nH]c4ccc(Cl)cc4c3CCN2C(=O)OCC)c1` (centres unmarked) [Compound 1387] displayed a concentration giving a half-maximal response (EC50) of 40 to 200 nM.

The values above are taken from US11613538B2, “Method of inhibiting or reducing a viral infection” (PTC Therapeutics, Inc., priority 2009, dated 2023).
